Measured values published in patent publication US20040176467A1, “Method of preventing or reducing the occurrence of symptoms of psychosis” (priority 2004, published 2004).

Columns and labels:
rat locomotion = conditions: cited from earlier work; for effect on rat locomotion: D3 antagonists; for effect on locomotion at higher doses: significant D2 receptor occupancy or activation; for effect on locomotion at low doses: devoid of significant D2 receptor occupancy
D2 receptors = D2 receptors (Homo sapiens, UniProt P14416); assay: biochemical; conditions: read-out: occupancy for D2
Sequence of D2 receptors (P14416 whole entry): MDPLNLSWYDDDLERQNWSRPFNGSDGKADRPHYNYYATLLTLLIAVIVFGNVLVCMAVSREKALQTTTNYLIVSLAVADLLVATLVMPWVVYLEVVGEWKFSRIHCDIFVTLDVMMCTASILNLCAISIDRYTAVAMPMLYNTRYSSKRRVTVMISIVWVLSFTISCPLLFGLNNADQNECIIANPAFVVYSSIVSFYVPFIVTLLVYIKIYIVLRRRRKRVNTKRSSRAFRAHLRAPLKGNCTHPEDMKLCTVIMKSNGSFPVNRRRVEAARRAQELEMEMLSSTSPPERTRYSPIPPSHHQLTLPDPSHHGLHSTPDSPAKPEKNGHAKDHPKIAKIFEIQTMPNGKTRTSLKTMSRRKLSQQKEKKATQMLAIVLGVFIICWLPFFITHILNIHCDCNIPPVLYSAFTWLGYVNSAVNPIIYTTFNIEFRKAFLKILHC

behavioral sensitization = conditions: later challenge; cited from earlier work
[1] = target: D3 dopamine receptor (D3/D2) (Homo sapiens, UniProt P35462); conditions: cited from earlier work
Sequence of D3 dopamine receptor (D3/D2) (P35462 whole entry): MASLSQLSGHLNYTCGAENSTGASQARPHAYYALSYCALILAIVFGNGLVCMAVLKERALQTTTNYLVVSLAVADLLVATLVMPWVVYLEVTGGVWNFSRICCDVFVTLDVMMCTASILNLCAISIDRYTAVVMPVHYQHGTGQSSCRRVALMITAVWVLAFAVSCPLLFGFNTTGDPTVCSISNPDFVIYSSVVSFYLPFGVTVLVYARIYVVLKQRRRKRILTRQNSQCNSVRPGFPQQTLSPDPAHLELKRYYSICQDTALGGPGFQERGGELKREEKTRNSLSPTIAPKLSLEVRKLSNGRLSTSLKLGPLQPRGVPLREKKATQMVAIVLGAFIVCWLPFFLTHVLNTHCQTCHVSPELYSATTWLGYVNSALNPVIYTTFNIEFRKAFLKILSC

schizophrenia patients = conditions: cited from earlier work
[2] = tested on: stereotyped behaviors induced by apomorphine and dizocilipine; conditions: preclinical models of antipsychotic drug efficacy; cited from earlier work
[3] = tested on: D3 knockout and wild type mice; conditions: habituated animals; cited from earlier work
[4] = tested on: neurons in substantia nigra (SN), ventral tegmentum (VTA), and nucleus accumbens (NA); conditions: cited from earlier work
[5] = tested on: locomotor sensitization to amphetamine; assay: locomotor sensitization to amphetamine; assay type: in vivo
D2 receptor = conditions: dose that inhibits sensitization; cited from earlier work

## CCCN[C@@H]1CCc2c(OC)cccc2[C@@H]1C [(+)-AJ 76]
Rat locomotion
  effect on rat locomotion: stimulate rat locomotion

## NCCc1ccc(O)c(O)c1 [dopamine]
D2 receptors
  receptor occupancy at 0.75 µM: 27%

## CCN1CCCC1CNC(=O)c1cc(S(N)(=O)=O)ccc1OC (stereo not shown) [sulpiride]
Behavioral sensitization
  sensitization after repetitive treatment: results in sensitization to cocaine
[1]
  D2/D3 affinity ratio: 2

## CCCN1CCCC(c2cccc(O)c2)C1 (single isomer, unassigned; (-)) [(−)-3PPP, (−)-3-(3-hydroxyphenyl)-N-n-propylpiperidine]
Schizophrenia patients
  effect on psychotic symptoms: improved psychotic symptoms in schizophrenia patients for up to one week

## CCCN(CCC)C1Cc2cc(OC)c(OC)cc2C1 [U99194A]
Rat locomotion
  effect on rat locomotion: stimulate rat locomotion

## O=C(CCCN1CCC(O)(c2ccc(Cl)cc2)CC1)c1ccc(F)cc1 [haloperidol]
Behavioral sensitization
  sensitization after repetitive treatment: results in sensitization to later challenge by cocaine, amphetamine, or the dopamine agonist apomorphine

## CCCN1CCO[C@@H]2c3cc(O)ccc3OC[C@H]21 [PD 128907]
Rat locomotion
  effect on locomotion at higher doses: stimulation of locomotion
  effect on locomotion at low doses: inhibition of spontaneous locomotion
[2]
  effect on stereotyped behaviors induced by apomorphine and dizocilipine: effectively inhibits
[3]
  difference in hypolocomotor behavioral response between D3 knockout and wild type mice: Neither laboratory found a significant difference

## N#Cc1ccc2c(c1)[C@H]1CN(CCCCNC(=O)c3ccc(-c4ccccc4)cc3)C[C@@H]1CO2 [S33084]
[1]
  preference (selectivity) for D3/D2: 100 fold

## O=C(NCCCCN1CCN(c2cccc(Cl)c2Cl)CC1)c1ccc2c(c1)Cc1ccccc1-2 [NGB 2904]
[1]
  preference (selectivity) for D3/D2: 155 fold

## CCCN(CCC)C1CCc2ccc(O)cc2C1 (stereo not shown) [7-OH-DPAT, 7-hydroxy-N,N-di-n-propyl-2-aminotetralin]
[4]
  effect on neuronal firing rate: inhibits neuronal firing rate
Rat locomotion
  effect on locomotion at higher doses: stimulation of locomotion
  effect on locomotion at low doses: inhibition of spontaneous locomotion
Rat locomotion; micro-injection into rat nucleus accumbens, also systemic administration in mice
  effect on locomotion after micro-injection: inhibition of locomotion
[5]; following a sensitizing regimen of amphetamine
  behavioral response to the D3 agonist after a sensitizing regimen of amphetamine: decreased behavioral response
[3]
  difference in hypolocomotor behavioral response between D3 knockout and wild type mice: Neither laboratory found a significant difference

## CCCCN1CCCC1CNC(=O)c1cc(C#N)c2ccccc2c1OC (stereo not shown) [nafadotride]
D2 receptor
  D2 receptor occupancy at the dose used: devoid of appreciable D2 receptor occupancy
Rat locomotion
  effect on rat locomotion: stimulate rat locomotion
[1]
  preference (selectivity) for D3/D2: 10 fold
[5]; dose devoid of appreciable D2 receptor occupancy
  effect on locomotor sensitization to amphetamine: inhibition of locomotor sensitization to amphetamine

## CCCN(CCC)[C@@H]1CCc2c(OC)cccc2[C@@H]1C [(+)-UH 232]
Schizophrenia patients
  effect on psychotic symptoms: further worsened positive psychotic symptoms
Rat locomotion
  effect on rat locomotion: stimulate rat locomotion
